Measurements as given in US20070004715A1, “Novel spiro-quinuclidinyl derivatives for the treatment of central nervous system disorders” (priority 2005, published 2007).
Counter-ions that a name gives are not always drawn. Like-named read-outs stand apart in the source and are kept apart here.

Assays:
fluo-Aβ1-40 = biological target: T1, fluo-Aβ1-40 (Homo sapiens, UniProt P05067); assay: Aβ Aggregation Assay (Synthaloid plates, fluo-Aβ1-40); assay type: biochemical; details: 10 μM test compound, 100 nM fluo-Aβ1-40, 2.5 hr at room temperature; higher % = greater effectiveness at preventing aggregation
T1 construct: added 100 nM of fluo-Aβ1-40 in 100 μl
T1 sequence (P05067 672-711): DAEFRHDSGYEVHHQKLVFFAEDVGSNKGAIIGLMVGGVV
Protocol: Aβs are known to form aggregates leading to the formation of amyloid plaques that are characteristic of Alzheimer's disease.
This aggregation assay was validated using both ^125I-Aβ1-40 and fluo-Aβ1-40 in a buffer containing 50 mM HEPES, pH 7.4, 0.1% BSA, 10% FCS and protease inhibitors.
To each well of a 96-well Synthaloid plate was added 100 nM of fluo-Aβ1-40 in 100 μl. To each well was then added 10 μM of test compound. The plate was then allowed to incubate for 2.5 hr at room temperature. At the end of the incubation, unbound protein in the wells was removed by three washes using the buffer as described above. The amount of bound protein (which represents the amount of Aβ aggregation) was measured either by fluorescence measurements.
Higher fluorescence values relative to vehicle wells were interpreted as an indication of greater Aβ aggregation. […] Higher % values in the data in Table 4 below, below indicates greater effectiveness at preventing aggregation.
(§1) Both the Aβ aggregation assay as described in Example 55, particularly as run using the ^125I-Aβ1-40, and the % inhibition of AcH release assay as described in Example 56, were highly variable on a run-to-run basis. However, the relative activities of the tested compounds were reproducible.

[1] = tested on: Synaptosomes from guinea pig hippocampus; assay: % Inhibition of AcH Release Assay (K+-evoked 3H-acetylcholine release); assay type: cell-based; details: synaptosomes pre-treated with 10 μM test compound prior to 65 mM K+ stimulation
Protocol: Synaptosomes from guinea pig hippocampus were incubated with 0.1 μM ^3H-choline and then subjected to repeated washes with buffer to remove unincorporated ^3H-choline. The synaptosomes were then treated with 65 mM K^+ for 30 seconds to elicit 3H-acetylcholine release.
To determine if a test compound will inhibit acetylcholine release, the synaptosomes were pre-treated with 10 μM of the test compound prior to the K+ stimulation. The decrease or increase in acetylcholine release was then measured by superfusion.
as §1

[2] = biological target: T2, M1 muscarinic receptor (M1 human CHO receptor membranes) (Homo sapiens, UniProt P11229); assay: M1 Muscarinic Receptor % Inhibition Assay (SPA, tritiated scopolamine); assay type: binding
T2 construct: purchased Amersham 6110503; host or cells: CHO cell membranes
T2 sequence (P11229 1-460): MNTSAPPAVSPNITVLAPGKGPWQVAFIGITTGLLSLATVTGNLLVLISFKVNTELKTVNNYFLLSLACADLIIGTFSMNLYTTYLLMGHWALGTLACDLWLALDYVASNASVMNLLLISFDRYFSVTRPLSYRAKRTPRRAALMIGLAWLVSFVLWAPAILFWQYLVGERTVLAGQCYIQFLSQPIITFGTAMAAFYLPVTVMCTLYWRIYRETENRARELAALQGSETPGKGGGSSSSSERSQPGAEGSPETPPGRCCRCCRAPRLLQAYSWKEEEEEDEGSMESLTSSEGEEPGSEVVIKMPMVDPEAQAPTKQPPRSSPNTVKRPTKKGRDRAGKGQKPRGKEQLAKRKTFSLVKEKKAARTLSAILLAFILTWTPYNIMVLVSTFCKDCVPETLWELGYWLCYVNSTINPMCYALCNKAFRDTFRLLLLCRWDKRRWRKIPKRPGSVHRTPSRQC

[3] = tested on: Synaptosomes from guinea pig hippocampus; details: peptide at 100 μM; 'known to' inhibit release; cited from earlier work

| Compound | Aβ aggregation inhibition (%) (fluo-Aβ1-40) | Inhibition of acetylcholine release [1] | % Inhibition @1 μM ([2]; 1 μM compound) | % Inhibition @10 μM ([2]; 10 μM compound) | Inhibition of acetylcholine release [3] |
| --- | --- | --- | --- | --- | --- |
| N=C1CC2(CN3CCC2CC3)OC(=O)N1c1ccc(Cl)c(Cl)c1 (centres unmarked) [Compound 104, 3′-(3,4-dichlorophenyl)-quinuclidine-3-spiro-4′-iminooxan-2-ones trifluoroacetate salt] | 0% | 43% |  |  |  |
| Cc1cc(C)cc(N2C(=N)CC3(CN4CCC3CC4)OC2=O)c1 (centres unmarked) [Compound 106, 3′-(3,5-dimethylphenyl)-quinuclidine-3-spiro-4′-iminooxan-2-ones trifluoroacetate salt] | 80% | 18% |  |  |  |
| N=C1CC2(CN3CCC2CC3)OC(=O)N1c1cc(Cl)cc(Cl)c1 (centres unmarked) [Compound 107, 3′-(3,5-dichlorophenyl)-quinuclidine-3-spiro-4′-iminooxan-2-ones trifluoroacetate salt] | 30% | 54% |  |  |  |
| N=C1CC2(CN3CCC2CC3)OC(=O)N1c1cccc(Cl)c1 (centres unmarked) [Compound 108, 3′-(3-chlorophenyl)-quinuclidine-3-spiro-4′-iminooxan-2-ones trifluoroacetate salt] | 70% | 63% |  |  |  |
| Cc1ccc(N2C(=N)CC3(CN4CCC3CC4)OC2=O)cc1Cl (centres unmarked) [Compound 109, 3′-(3-chloro-4-methylphenyl)-quinuclidine-3-spiro-4′-iminooxan-2-ones trifluoroacetate salt] | 80% | 33% | 90% | 98% |  |
| Aβ1-40: β-amyloid peptide 1-40, known to inhibit acetylcholine release from synaptosomes |  |  |  |  | 33% |
| Aβ1-42: β-amyloid1-42 peptide, forms oligomers, fibrils and amyloid plaques |  |  |  |  | 33% |
